From patent publication US10851067B2, “Kv7 channel activators compositions and methods of use” (Knopp Biosciences LLC, priority 2018, dated 2020)

What follows are compounds tested against Kv7.2/7.3 (Homo sapiens, UniProt O43525+O43526) (assay: Kv7.2/7.3 Activation Assay, QPatch single concentration screen). Conditions: Kv7.2/Kv7.3 co-expressing HEK cells, compound concentration 3 μM, steady-state current at end of 2 s pulse to −30 mV.
Assay type: cell-based
Set-up: host or cells: HEK cells, tetracycline-inducible expression; key: 1.2-2.9 (+); 3-3.9 (++); >4 (+++) fold increase over baseline; O represents open channel at holding potential
Description: Kv7.2/7.3 Activation Assay
The ability of compounds to potentiate K-currents in Kv7.2/7.3 containing HEK cells was assessed using planar patch-clamp on the QPatch automated screening platform.
The hKv7.2/7.3 cell line was obtained from Chantest (Cleveland, Ohio 44128) cat. #CT6147. These HEK cells will express the Kv7.2/7.3 ion channels when induced.
Cells were maintained in a media containing DMEM/F12; 50/50 (GIBCO cat. #11330), 10% Fetal Bovine Serum (FBS) (GIBCO cat. #26140), 100 units/mL Penicillin-Streptomycin (GIBCO cat. #15140), 0.005 mg/mL Blasticidin (INVIVOGEN cat. #ant-b1-1), 0.5 mg/mL Geneticin (GIBCO cat. #10131), 0.1 mg/mL Zeocin (GIBCO cat. #R25001). Cells used in the electrophysiology assay were maintained in a media without Blasticidin, Geneticin and Zeocin for 2 days and channel expression was induced by adding tetracycline (BIOLINE cat. #BIO-87030) at a final concentration of 1 mg/mL. Cells were grown in T-175 flask to ˜75% confluency. Currents were recorded 24 hours after channel induction.
Test compounds were prepared by performing serial dilutions on a Biomek NX^P (BECKMAN COULTER). Final dilutions were made in external recording solution with a final DMSO concentration of 0.1% DMSO. For single concentration screens each plate had 10 μM retigabine as a positive control and 0.1% DMSO as a negative control.
On the day of the experiment cells were washed with Hank's Balanced Salt Solution (HBBS) (GIBCO cat. #14175) and harvested with Tryple (GIBCO cat. #12604). Cells were then centrifuged at 2000 rpm for 5 minutes and resuspended in CHO-S-SFM (GIBCO cat. #12052) at ˜3×10^6 cells/mL. Cells were stirred for 30 minutes before experiments were started. External recording solution contained (in mM): NaCl (145), KCl (4), CaCl2 (2), MgCl2 (1), HEPES (10) and Glucose (10); pH was adjusted to 7.4 with NaOH and the osmolarity was adjusted to 300-305 mOsM with sucrose if necessary. Internal solution contained (in mM): KCl (125), KF (10), EGTA (5), Na2ATP (5), MgCl2 (3.2), HEPES (5); pH was adjusted to 7.2 with KOH and the osmolarity was adjusted to 298-302 mOsM with sucrose.
Potassium channel activity was measured on the QPatch HTX (Sophion Bioscience) using QPlates with 48-wells/plate. Each cell was taken as an independent experiment and only one compound was tested per well. Potassium channel activity was elicited by holding at −80 mV and stepping to −30 mV for 2 s followed by a 100 ms pulse to −120 mV.
Single Concentration Screen:
Baseline conditions were obtained by recording 5 sweeps in the external solution only, this was repeated for three applications of the external solution. The effect of test compounds on elicited current was then assessed by recording 5 sweeps in the presence of a 3 μM compound solution. The steady-state current at the end of the 2 s pulse to −30 mV was measured to determine the fold increase from baseline.

Compound	Kv7.2/7.3 Activity: increase over baseline in current
CC(C)(C)CC(=O)Nc1nc2ccc(C3(F)COC3)cc2n1C1CCC1 [Example 432, N-(1-cyclobutyl-6-(3-fluorooxetan-3-yl)-1H-benzo[d]imidazol-2-yl)-3,3-dimethylbutanamide]	+++ (>4 (+++) fold increase over baseline)
CC(C)(O)c1ccc2nc(NC(=O)CC3CC(F)(F)C3(F)F)n(C3(C)CCC3)c2c1 (single isomer, unassigned) [Example 376, N-(6-(2-hydroxypropan-2-yl)-1-(1-methylcyclobutyl)-1H-benzo[d]imidazol-2-yl)-2-(2,2,3,3-tetrafluorocyclobutyl)acetamide]	+ (1.2-2.9 (+))
CC(O)(CC(=O)Nc1nc2ccc(OC(F)F)cc2n1C1CCC1)c1ccccc1 (single isomer, unassigned) [Example 422, N-(1-cyclobutyl-6-(difluoromethoxy)-1H-benzo[d]imidazol-2-yl)-3-hydroxy-3-phenylbutanamide]	+ (1.2-2.9 (+))
C[C@H](C(=O)Nc1nc2ccc(C(C)(C)O)cc2n1C1(C)CCC1)C(C)(C)C [Example 383, (S)-N-(6-(2-hydroxypropan-2-yl)-1-(1-methylcyclobutyl)-1H-benzo[d]imidazol-2-yl)-2,3,3-trimethylbutanamide]	++ (3-3.9 (++))
CC(C)(C)CC(=O)Nc1nc2c(F)cc(C#N)cc2n1C1CCC1 [Example 411, N-(6-cyano-1-cyclobutyl-4-fluoro-1H-benzo[d]imidazol-2-yl)-3,3-dimethylbutanamide]	+++ (>4 (+++) fold increase over baseline)
CC(C)(O)c1cc(F)c2nc(NC(=O)CSC(F)(F)F)n(C3CCC3)c2c1 [Example 413, N-(1-cyclobutyl-4-fluoro-6-(2-hydroxypropan-2-yl)-1H-benzo[d]imidazol-2-yl)-2-((trifluoromethyl)thio)acetamide]	+++ (>4 (+++) fold increase over baseline)
CC(C)(C)CC(=O)Nc1nc2cccc(C#N)c2n1C1(C)CCC1 [Example 473, N-(7-cyano-1-(1-methylcyclobutyl)-1H-benzo[d]imidazol-2-yl)-3,3-dimethylbutanamide]	++ (3-3.9 (++))
CC(C)(O)c1ccc2nc(NC(=O)CC(C)(C)C3CC3)n(CC(F)(F)F)c2c1 [Example 406, 3-cyclopropyl-N-(6-(2-hydroxypropan-2-yl)-1-(2,2,2-trifluoroethyl)-1H-benzo[d]imidazol-2-yl)-3-methylbutanamide]	+++ (>4 (+++) fold increase over baseline)
CC(C)(C)CC(=O)Nc1nc2ccc(C(C)(C)O)cc2n1C12CC(C1)C2 [Example 425, N-(1-(bicyclo[1.1.1]pentan-1-yl)-6-(2-hydroxypropan-2-yl)-1H-benzo[d]imidazol-2-yl)-3,3-dimethylbutanamide]	++ (3-3.9 (++))
CC(C)(C)n1c(NC(=O)CC(C)(C)C(F)(F)F)nc2c(F)cc(C#N)cc21 [Example 378, N-(1-(tert-butyl)-6-cyano-4-fluoro-1H-benzo[d]imidazol-2-yl)-4,4,4-trifluoro-3,3-dimethylbutanamide]	+++ (>4 (+++) fold increase over baseline)
CC(O)(CC(=O)Nc1nc2c(F)cc(C#N)cc2n1C(C)(C)C)c1cccc(F)c1 (single isomer, unassigned) [Example 339, N-(1-(tert-butyl)-6-cyano-4-fluoro-1H-benzo[d]imidazol-2-yl)-3-(3-fluorophenyl)-3-hydroxybutanamide]	O
CC(C)(C)CC(=O)Nc1nc2c(F)cc(OCc3ccccc3)cc2n1C1CCC1 [Example 388, N-(6-(benzyloxy)-1-cyclobutyl-4-fluoro-1H-benzo[d]imidazol-2-yl)-3,3-dimethylbutanamide]	+++ (>4 (+++) fold increase over baseline)
CC(O)(CC(=O)Nc1nc2ccc(OC(F)F)c(F)c2n1C1(C)CCC1)c1ccccc1 (single isomer, unassigned) [Example 374, N-(6-(difluoromethoxy)-7-fluoro-1-(1-methylcyclobutyl)-1H-benzo[d]imidazol-2-yl)-3-hydroxy-3-phenylbutanamide]	++ (3-3.9 (++))
CC(C)(C)n1c(NC(=O)CC2CC(F)(F)C2(F)F)nc2c(F)cc(C#N)cc21 (single isomer, unassigned) [Example 416, N-(1-(tert-butyl)-6-cyano-4-fluoro-1H-benzo[d]imidazol-2-yl)-2-(2,2,3,3-tetrafluorocyclobutyl)acetamide]	++ (3-3.9 (++))
COC(=O)Cc1c(F)ccc2nc(NC(=O)CC(C)(C)C)n(C3CCC3)c12 [Example 447, methyl 2-(1-cyclobutyl-2-(3,3-dimethylbutanamido)-6-fluoro-1H-benzo[d]imidazol-7-yl)acetate]	+++ (>4 (+++) fold increase over baseline)

Continued, values first:

Kv7.2/7.3 Activity: increase over baseline in current	Compound
+ (1.2-2.9 (+))	CC(C)(CC(=O)Nc1nc2ccc(C#N)cc2n1C(C)(C)C(F)(F)F)C(F)(F)F [Example 484, N-(6-cyano-1-(1,1,1-trifluoro-2-methylpropan-2-yl)-1H-benzo[d]imidazol-2-yl)-4,4,4-trifluoro-3,3-dimethylbutanamide]
++ (3-3.9 (++))	CC(C)(O)c1cc(F)c2nc(NC(=O)CC3CC(F)(F)C3(F)F)n(C3CCC3)c2c1 (centres unmarked) [Example 405, N-(1-cyclobutyl-4-fluoro-6-(2-hydroxypropan-2-yl)-1H-benzo[d]imidazol-2-yl)-2-(2,2,3,3-tetrafluorocyclobutyl)acetamide]
++ (3-3.9 (++))	CC(C)(CC(=O)Nc1nc2cc(F)cc(F)c2n1C1CCC1)C(F)(F)F [Example 453, N-(1-cyclobutyl-5,7-difluoro-1H-benzo[d]imidazol-2-yl)-4,4,4-trifluoro-3,3-dimethylbutanamide]
+ (1.2-2.9 (+))	COc1cccc2nc(NC(=O)CC(C)(O)c3ccccc3)n(C3CCC3)c12 (single isomer, unassigned) [Example 358, N-(1-cyclobutyl-7-methoxy-1H-benzo[d]imidazol-2-yl)-3-hydroxy-3-phenylbutanamide]
+ (1.2-2.9 (+))	CC(C)(O)c1ccc2nc(NC(=O)CC(C)(C)C(F)F)n(C3CCC3)c2c1 [Example 386, N-(1-cyclobutyl-6-(2-hydroxypropan-2-yl)-1H-benzo[d]imidazol-2-yl)-4,4-difluoro-3,3-dimethylbutanamide]
+ (1.2-2.9 (+))	CC(C)(O)c1ccc2nc(NC(=O)CC3CC(F)(F)C3(F)F)n(C3CCC3)c2c1 (single isomer, unassigned) [Example 398, N-(1-cyclobutyl-6-(2-hydroxypropan-2-yl)-1H-benzo[d]imidazol-2-yl)-2-(2,2,3,3-tetrafluorocyclobutyl)acetamide]
+ (1.2-2.9 (+))	CC(C)(CC(=O)Nc1nc2c(F)cc(OC(F)F)cc2n1C1CCC1)C1CC1 [Example 390, N-(1-cyclobutyl-6-(difluoromethoxy)-4-fluoro-1H-benzo[d]imidazol-2-yl)-3-cyclopropyl-3-methylbutanamide]
++ (3-3.9 (++))	CC(C)(C)CC(=O)Nc1nc2c(F)cc(C(C)(O)C3CC3)cc2n1C1CCC1 (centres unmarked) [Example 445, N-(1-cyclobutyl-6-(1-cyclopropyl-1-hydroxyethyl)-4-fluoro-1H-benzo[d]imidazol-2-yl)-3,3-dimethylbutanamide]
